In US12036228B2, “Treatment of seizure disorders” (Shackelford Pharma Inc., priority 2022, dated 2024):
Where “and” joins values, the source holds several entries; their conditions need not be identical. Equal values may be shown once. Read-outs that look alike come from different tables or passages of the source.

Experiments:
[1] = system: seizures in human patient; assay: Example 3 human patient, GTC and complex partial seizures; assay type: in vivo; settings: including ataxia; discontinued after 6 months
Source text: A patient first started having GTC and complex partial (CP) seizures. […] The patient was referred for evaluation for initiation of cannabinoid/THC treatment in March 2014.

[2] = system: male CD-1 mice, 6 Hz (22 mA) corneal stimulus psychomotor seizure; assay: Mouse 6 Hz seizure (22 mA) test; assay type: in vivo; settings: for % Seizure, group / % Seizure / F. Clonus / Lat H. Movement / Straub T. / Stun / Total (seizure score) / Total (seizure score), group mean / ED50: 30 min before test; for % Seizure: individual animals (0/1); for F. Clonus / Lat H. Movement / Straub T. / Stun / Total (seizure score): individual animals; for ED50: Mus musculus, IP
Method: This study assessed the anti-epileptic effects of low doses of dronabinol in the mouse 6 Hz seizure (22 mA) test at 4 dose levels. Sixty male CD-1 mice were randomly allocated to 1 of 7 treatment groups outlined in Table 1 below. The mice were purchased from Charles River Laboratories (St. Constant, Quebec, Canada). On the day of the experiment, general health observations and body weight measurements were performed prior to dosing. Thirty (30) minutes after administration of assigned treatments in Table 1, animals underwent a neurological assessment followed immediately by 6 Hz testing. Descriptions of these procedures are provided below.
Dronabinol and sodium valproate were dissolved in their respective vehicles on the day of dosing. Treatments were intraperitoneally administered to the lower right quadrant of the abdomen according to standard operating procedures. Treatment group summaries are included in Table 1.
On the scheduled test day, subjects received a dose of their assigned treatment 30 minutes before the electrical stimulus. Following neurological assessments, animals then received an electrical stimulus (6 Hz, 0.2 millisecond pulse width, 3 second duration, 22 mA) via corneal electrodes moistened with saline (ECT unit 57800; Ugo Basile). In approximately 50% of control animals, these stimulus parameters should elicit a psychomotor seizure within 30 seconds of stimulus delivery, defined as the expression of at least one of the following behaviours: stun/immobility, forelimb clonus, straub tail, or lateral head movement. Protection was defined as complete absence of the following: stun/immobility, forelimb clonus, straub tail and/or lateral head movement, within 30 seconds of stimulus delivery. A seizure score was assigned to each animal based on the number of these behaviours expressed by the animal after stimulus application. Once the animal either entered into a seizure, or 30 seconds elapsed, the endpoint was reached, and the animal was immediately euthanized.
All statistical analyses were performed using GraphPad Prism v.7.03. Analysis of variance (ANOVA) was completed for total seizure score data with the independent grouping variable of treatment (i.e., test article dose and control). In the event of a significant main effect, post-hoc Fisher's least significant difference analysis was conducted to compare vehicle with drug treatment.

[3] = system: male CD-1 mice; assay: Neurological assessment (score 0-3) immediately prior to seizure test; assay type: in vivo, mouse; design: key to Neurological Score: 0: Normal; 1: Modest decrease in spontaneous activity; 2: Marked decrease in spontaneous activity; 3: Loss of righting reflex; settings: for Neurological Score: 30 min after dosing, individual animals
Method: Immediately prior to each seizure test, a brief neurological assessment was performed.

[4] = system: GTC seizures in human patient; assay: Example 2 human patient, Dravet syndrome; assay type: in vivo
Method: A patient first started having seizures and was subsequently diagnosed with Dravet syndrome. Initially, they were having clusters of 2 GTC seizures a day for 2 days occurring about every 2 weeks. Keppra was ineffective as were other combinations of anti-epileptic drugs. Several different combinations were tried and by the time they were first seen for evaluation for cannabinoid treatment on Aug. 7, 2014, they were taking Depakote 125 mg BID, Clonazepam 0.5 mg TID, and Versed/Diastat as needed for rescue but was still having clusters of GTC seizures every 2 weeks. The patient had started a CBD product on Jul. 3, 2014 (product analysis: 11.2 mg CBD/gm with 0.38 mg THC/gm at a dose of 0.7 mL TID (unknown concentration per mL), but seizures still were occurring irregularly—primarily GTC occurring in clusters of 1-2 per day every two weeks, rare atonic, and occasional eye-flutters.

[5] = system: GTC seizures in human patient; assay: Example 7 human patient, intractable GTC seizures; assay type: in vivo
Source text: A patient was first diagnosed with intractable GTC seizures without status epilepticus in 2001.
The patient first presented for cannabinoid treatment on May 24, 2013. They were then a PhD student in economics. The patient's medical history is significant for having a car accident with a concussion and “scarring”. They developed GTC seizures occurring 3 times per month. […] In 2008, they started using recreational cannabis occasionally, but not regularly.

Structure (SMILES): CCCC(CCC)C(=O)O [Depakote]
- side effects [1]: debilitating side effects

Structure (SMILES): CCCCCc1cc(O)c2c(c1)OC(C)(C)[C@@H]1CCC(C)=C[C@@H]21 [Dronabinol]
- % Seizure, group ([2]; 0.002 mg/kg IP, N = 8): 62.5%
- % Seizure ([2]; 0.002 mg/kg IP, N = 8): 1 (5×) and 0 (3×)
- F. Clonus ([2]; 0.002 mg/kg IP, N = 8): 1 (4×) and 0 (4×)
- Lat H. Movement ([2]; 0.002 mg/kg IP, N = 8): 1 (3×) and 0 (5×)
- Straub T. ([2]; 0.002 mg/kg IP, N = 8): 0 (7×) and 1
- Stun ([2]; 0.002 mg/kg IP, N = 8): 1 (4×) and 0 (4×)
- Total (seizure score) ([2]; 0.002 mg/kg IP, N = 8): 3 (2×) and 2 (3×) and 0 (3×)
- Total (seizure score), group mean ([2]; 0.002 mg/kg IP, N = 8): 1.5
- % Seizure, group ([2]; 0.02 mg/kg IP, N = 8): 50.0%
- % Seizure ([2]; 0.02 mg/kg IP, N = 8): 0 (4×) and 1 (4×)
- F. Clonus ([2]; 0.02 mg/kg IP, N = 8): 0 (7×) and 1
- Lat H. Movement ([2]; 0.02 mg/kg IP, N = 8): 0 (5×) and 1 (3×)
- Straub T. ([2]; 0.02 mg/kg IP, N = 8): 0 (7×) and 1
- Stun ([2]; 0.02 mg/kg IP, N = 8): 0 (5×) and 1 (3×)
- Total (seizure score) ([2]; 0.02 mg/kg IP, N = 8): 0 (4×) and 2 (2×) and 1 and 3
- Total (seizure score), group mean ([2]; 0.02 mg/kg IP, N = 8): 1.0
- % Seizure, group ([2]; 0.2 mg/kg IP, N = 8): 50.0%
- % Seizure ([2]; 0.2 mg/kg IP, N = 8): 0 (4×) and 1 (4×)
- F. Clonus ([2]; 0.2 mg/kg IP, N = 8): 0 (6×) and 1 (2×)
- Lat H. Movement ([2]; 0.2 mg/kg IP, N = 8): 0 (7×) and 1
- Straub T. ([2]; 0.2 mg/kg IP, N = 8): 0 (5×) and 1 (3×)
- Stun ([2]; 0.2 mg/kg IP, N = 8): 0 (4×) and 1 (4×)
- Total (seizure score) ([2]; 0.2 mg/kg IP, N = 8): 0 (4×) and 3 (2×) and 2 (2×)
- Total (seizure score), group mean ([2]; 0.2 mg/kg IP, N = 8): 1.3
- % Seizure, group ([2]; 2 mg/kg IP, N = 11): 54.5%
- % Seizure ([2]; 2 mg/kg IP, N = 11): 1 (6×) and 0 (5×)
- F. Clonus ([2]; 2 mg/kg IP, N = 11): 1 (5×) and 0 (6×)
- Lat H. Movement ([2]; 2 mg/kg IP, N = 11): 0 (8×) and 1 (3×)
- Straub T. ([2]; 2 mg/kg IP, N = 11): 0 (10×) and 1
- Stun ([2]; 2 mg/kg IP, N = 11): 0 (8×) and 1 (3×)
- Total (seizure score) ([2]; 2 mg/kg IP, N = 11): 1 (2×) and 0 (5×) and 2 (3×) and 4
- Total (seizure score), group mean ([2]; 2 mg/kg IP, N = 11): 1.0
- seizure incidence in the 6 HZ seizure test ([2]; 4 mg/kg IP): Decreased seizure incidence
- % Seizure, group ([2]; 4 mg/kg IP, N = 9): 33.3%
- % Seizure ([2]; 4 mg/kg IP, N = 9): 0 (6×) and 1 (3×)
- F. Clonus ([2]; 4 mg/kg IP, N = 9): 0
- Lat H. Movement ([2]; 4 mg/kg IP, N = 9): 0
- Straub T. ([2]; 4 mg/kg IP, N = 9): 0 (8×) and 1
- Stun ([2]; 4 mg/kg IP, N = 9): 0 (6×) and 1 (3×)
- Total (seizure score) ([2]; 4 mg/kg IP, N = 9): 0 (6×) and 1 (2×) and 2
- Total (seizure score), group mean ([2]; 4 mg/kg IP, N = 9): 0.4
- seizure scores (mean±SEM) vs vehicle, post-hoc analysis ([2]; 0.02, 2, and 4 mg/kg doses IP, p<0.05): reduction in seizure scores
- ED50 ([2]; 0.002 to 4 mg/kg doses, 95% confidence limits 1.36-11.82 mg/kg, read-out: ED50, decrease in percentage incidence of seizures): 4.01 mg/kg
- ED50 ([2]; 95% CI (0.01-1.05), read-out: ED50, decrease in the seizure score): 0.1 mg/kg
- Neurological Score ([3]; 0.002 mg/kg IP, N = 8): 0
- Neurological Score, group mean ([3]; 0.002 mg/kg IP, N = 8): 0.0
- Neurological Score ([3]; 0.02 mg/kg IP, N = 8): 0
- Neurological Score, group mean ([3]; 0.02 mg/kg IP, N = 8): 0.0
- Neurological Score ([3]; 0.2 mg/kg IP, N = 8): 0
- Neurological Score, group mean ([3]; 0.2 mg/kg IP, N = 8): 0.0
- effect on behaviour as measured by neurological scoring ([3]; 0.002-4 mg/kg IP): no measurable effect on behaviour
- Neurological Score ([3]; 2 mg/kg IP, N = 11): 0
- Neurological Score, group mean ([3]; 2 mg/kg IP, N = 11): 0.0
- Neurological Score ([3]; 4 mg/kg IP, N = 9): 0
- Neurological Score, group mean ([3]; 4 mg/kg IP, N = 9): 0.0

Structure (SMILES): CC[C@@H](C(N)=O)N1CCCC1=O [Keppra, levetiracetam]
- effect on seizures ([4]; Dravet patient, initial treatment): ineffective

Structure (SMILES): CCCC(CCC)C(=O)[O-].[Na+] [Sodium Valproate, Sodium valproate]
- % Seizure, group ([2]; 600 mg/kg IP, N = 4): 0.0%
- % Seizure ([2]; 600 mg/kg IP, N = 4): 0
- F. Clonus ([2]; 600 mg/kg IP, N = 4): 0
- Lat H. Movement ([2]; 600 mg/kg IP, N = 4): 0
- Straub T. ([2]; 600 mg/kg IP, N = 4): 0
- Stun ([2]; 600 mg/kg IP, N = 4): 0
- Total (seizure score) ([2]; 600 mg/kg IP, N = 4): 0
- Total (seizure score), group mean ([2]; 600 mg/kg IP, N = 4): 0.0
- seizure scores (mean±SEM) vs vehicle, post-hoc analysis ([2]; p<0.01): reduction in seizure scores
- motor impairment (neurological assessment) ([3]; 600 mg/kg IP): noticeable motor impairment on all animals
- Neurological Score ([3]; 600 mg/kg IP, N = 4): 2
- Neurological Score, group mean ([3]; 600 mg/kg IP, N = 4): 2.0

Structure (SMILES): NC(=O)N1c2ccccc2C=Cc2ccccc21 [Tegretol]
- side effects ([5]; Tegretol (dose unknown)): concerning side effects

Structure (SMILES): NC(=O)N1c2ccccc2CC(=O)c2ccccc21 [Trileptal]
- side effects ([5]; Trileptal): concerning side effects

Structure (SMILES): CC(C)(C)C(O)/C=C/c1ccc2c(c1)OCO2 (stereo not drawn) [stiripentol]
- myoclonic seizures ([4]; stiripentol added to Depakote and Onfi (and THC 5 mg HS)): resolution of myoclonic seizures
